{
  "source": "patent US20090143288A1",
  "about": "“Peptide-complement conjugates” (Roche Palo Alto LLC, priority 2007, published 2009)",
  "target": "HR1 region of HIV-1 gp41 (immobilized biotinylated HR1 peptide Biotin-T-2324) (Human immunodeficiency virus type 1 group M subtype B, UniProt P04582, G556A)",
  "assay": "BIAcore surface plasmon resonance analysis of the binding to the HR1 region",
  "settings": "SPR, BIAcore 3000, 25° C., HBS-P buffer, 1:1 Langmuir binding model",
  "data": [
    {"smiles": "CC[C@H](C)[C@H](NC(=O)[C@H](CCC(N)=O)NC(=O)[C@H](C)NC(=O)[C@H](CCC(N)=O)NC(=O)[C@H](CCC(=O)O)NC(=O)[C@H](CC(C)C)NC(=O)[C@H](CC(C)C)NC(=O)[C@H](C)NC(=O)[C@@H](NC(=O)[C@@H](NC(=O)[C@H](CCCCN)NC(=O)[C@H](CCC(N)=O)NC(=O)[C@H](CCC(=O)O)NC(=O)[C@H](Cc1c[nH]c2ccccc12)NC(=O)[C@H](CCC(=O)O)NC(=O)[C@H](CCC(N)=O)NC(=O)[C@H](Cc1c[nH]c2ccccc12)NC(C)=O)[C@@H](C)CC)[C@@H](C)O)C(=O)N[C@@H](CCC(N)=O)C(=O)N[C@@H](CCC(N)=O)C(=O)N[C@@H](CCC(=O)O)C(=O)N[C@@H](CCCCN)C(=O)N[C@@H](CC(N)=O)C(=O)N[C@@H](CCC(=O)O)C(=O)N[C@@H](Cc1ccc(O)cc1)C(=O)N[C@@H](CCC(=O)O)C(=O)N[C@@H](CC(C)C)C(=O)N[C@@H](CCC(N)=O)C(=O)N[C@@H](CCCCN)C(=O)N[C@@H](CC(C)C)C(=O)N[C@@H](CC(=O)O)C(=O)N[C@@H](CCCCN)C(=O)N[C@@H](Cc1c[nH]c2ccccc12)C(=O)N[C@@H](C)C(=O)N[C@@H](CO)C(=O)N[C@@H](CC(C)C)C(=O)N[C@@H](Cc1c[nH]c2ccccc12)C(=O)N[C@@H](CCC(=O)O)C(=O)N[C@@H](Cc1c[nH]c2ccccc12)C(=O)N[C@@H](Cc1ccccc1)C(N)=O", "note": "[Rob T-1249, WQEWEQKITALLEQAQIQQEKNEYELQKLDKWASLWEWF]", "values": [
      {"measurement": "ka (association rate constant)", "result": "6.4 * 10^5 1/ms"},
      {"measurement": "kd (dissociation rate constant)", "result": 0.000845, "unit": "s⁻¹"}
    ]}
  ]
}
